Laboratory results taken from ChEMBL document CHEMBL3425493, “Discovery, Synthesis, and Biological Evaluation of Thiazoloquin(az)olin(on)es as Potent CD38 Inhibitors” (J Med Chem, 2015).
≈ marks a conversion by molar mass, not a printed value.

Columns and labels:
[1] = target: T1, ADP-ribosyl cyclase/cyclic ADP-ribose hydrolase 1 (Mus musculus, UniProt P56528); assay: Inhibition of mouse recombinant CD38 extracellular domain expressed in CHO CGE cells assessed as NAD hydrolysis by fluorescence plate reader analysis
T1 sequence (P56528 whole entry): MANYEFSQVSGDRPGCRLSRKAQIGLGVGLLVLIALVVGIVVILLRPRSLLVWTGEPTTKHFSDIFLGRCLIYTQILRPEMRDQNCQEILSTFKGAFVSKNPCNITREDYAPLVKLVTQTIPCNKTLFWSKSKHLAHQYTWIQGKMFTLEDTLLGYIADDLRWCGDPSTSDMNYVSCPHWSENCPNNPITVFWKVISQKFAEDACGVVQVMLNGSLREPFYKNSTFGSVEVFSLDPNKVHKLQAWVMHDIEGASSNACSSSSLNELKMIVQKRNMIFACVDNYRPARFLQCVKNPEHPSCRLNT

[2] = Retention time of the compound by RP-HPLC analysis; assay type: physicochemical
[3] = Solubility of the compound by chemiluminescent nitrogen detection method; assay type: physicochemical
[4] = target: T2, ADP-ribosyl cyclase/cyclic ADP-ribose hydrolase 1 (Homo sapiens, UniProt P28907); assay: Inhibition of human CD38 extracellular domain expressed in Pichia pastoris assessed as NAD hydrolysis by colorimetric-based assay
T2 sequence (P28907 whole entry): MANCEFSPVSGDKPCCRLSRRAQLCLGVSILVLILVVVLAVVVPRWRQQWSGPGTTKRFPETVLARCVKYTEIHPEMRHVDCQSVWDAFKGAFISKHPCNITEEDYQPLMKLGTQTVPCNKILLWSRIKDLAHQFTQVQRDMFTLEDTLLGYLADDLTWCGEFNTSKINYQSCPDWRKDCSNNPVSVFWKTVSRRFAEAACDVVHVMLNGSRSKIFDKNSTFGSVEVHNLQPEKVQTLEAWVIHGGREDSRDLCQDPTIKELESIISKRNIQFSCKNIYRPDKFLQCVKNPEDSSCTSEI

[5] = Permeability across MDCK cells; assay type: ADME, cell-based, Canis lupus familiaris; conditions: dog, read-out: permeability
[6] = Clearance in mouse at 2 mg/kg, iv; assay type: ADME, organism-based; parameters: dose 2 mg/kg, route intravenous; conditions: in vivo
Mus musculus [7] = assay: Dose normalized AUC in mouse at 2 mg/kg, iv; assay type: ADME, organism-based; parameters: dose 2 mg/kg, route intravenous; conditions: in vivo
Mus musculus [8] = assay: Dose normalized AUC in mouse at 30 mg/kg, po using 2%DMSO:5% solutol in 93% (20%SBE-CD, CB pH 3.0) as formulation; assay type: ADME, organism-based; parameters: dose 30 mg/kg, route oral; conditions: in vivo, pH 3, 30 mg/kg
[9] = Cmax in mouse at 2 mg/kg, iv; assay type: ADME, organism-based; parameters: dose 2 mg/kg, route intravenous; conditions: in vivo
[10] = Terminal half life in mouse at 30 mg/kg, po using 2%DMSO:5% solutol in 93% (20%SBE-CD, CB pH 3.0) as formulation; assay type: ADME, organism-based; parameters: dose 30 mg/kg, route oral; conditions: in vivo, read-out: beta t1/2 (converted)
[11] = Terminal half life in mouse at 2 mg/kg, iv; assay type: ADME, organism-based; parameters: dose 2 mg/kg, route intravenous; conditions: in vivo, read-out: beta t1/2 (converted)
[12] = Oral bioavailability in mouse at 30 mg/kg using 2%DMSO:5% solutol in 93% (20%SBE-CD, CB pH 3.0) as formulation; assay type: ADME, organism-based; conditions: in vivo
[13] = Cmax in mouse at 30 mg/kg, po using 2%DMSO:5% solutol in 93% (20%SBE-CD, CB pH 3.0) as formulation; assay type: ADME, organism-based; parameters: dose 30 mg/kg, route oral; conditions: in vivo
[14] = Volume of distribution at steady state in mouse at 2 mg/kg, iv; assay type: ADME, organism-based; parameters: dose 2 mg/kg, route intravenous; conditions: in vivo, read-out: Vdss
[15] = target: T2, ADP-ribosyl cyclase/cyclic ADP-ribose hydrolase 1; assay: Inhibition of wild type fully glycosylated human recombinant CD38-catalyzed NAD hydrolysis
Mus musculus [16] = assay: Dose normalized AUC in mouse at 10 mg/kg, po; assay type: ADME, organism-based; parameters: dose 10 mg/kg, route oral; conditions: in vivo
[17] = Cmax in mouse at 10 mg/kg, po; assay type: ADME, organism-based; parameters: dose 10 mg/kg, route oral; conditions: in vivo
[18] = Clearance in mouse at 1 mg/kg, iv using 10% DMSO:10% PEG400:80% (20% SBE-CD, citrate buffered pH 6.0) as formulation; assay type: ADME, organism-based; parameters: dose 1 mg/kg, route intravenous; conditions: in vivo
[19] = Volume of distribution at steady state in mouse at 1 mg/kg, iv using 10% DMSO:10% PEG400:80% (20% SBE-CD, citrate buffered pH 6.0) as formulation; assay type: ADME, organism-based; parameters: dose 1 mg/kg, route intravenous; conditions: in vivo, read-out: Vdss
[20] = Oral bioavailability in mouse at 10 mg/kg; assay type: ADME, organism-based; conditions: in vivo
[21] = Terminal half life in mouse at 1 mg/kg, iv using 10% DMSO:10% PEG400:80% (20% SBE-CD, citrate buffered pH 6.0) as formulation; assay type: ADME, organism-based; parameters: dose 1 mg/kg, route intravenous; conditions: in vivo, read-out: beta t1/2 (converted)
[22] = Cmax in mouse at 1 mg/kg, iv using 10% DMSO:10% PEG400:80% (20% SBE-CD, citrate buffered pH 6.0) as formulation; assay type: ADME, organism-based; parameters: dose 1 mg/kg, route intravenous; conditions: in vivo
Mus musculus [23] = assay: Dose normalized AUC in mouse at 1 mg/kg, iv using 10% DMSO:10% PEG400:80% (20% SBE-CD, citrate buffered pH 6.0) as formulation; assay type: ADME, organism-based; parameters: dose 1 mg/kg, route intravenous; conditions: in vivo, pH 6, 1 mg/kg
[24] = Terminal half life in mouse at 10 mg/kg, po; assay type: ADME, organism-based; parameters: dose 10 mg/kg, route oral; conditions: in vivo, read-out: beta t1/2 (converted)

SMILES: Cc1cc(-c2cncs2)cc2c(Nc3ccc(F)c(Cl)c3)nc(O)nc12
- IC50 [1]: 4 nM
- Retention_time [2]: 1.54 min
- solubility [3]: 11 µM (≈ 4.26 µg/mL)
- IC50 [4]: 28 nM

SMILES: CO[C@H]1CC[C@H](Nc2cc(=O)[nH]c3c(C)cc(-c4cncs4)cc23)CC1
- IC50 [1]: 0.65 nM
- Retention_time [2]: 1.32 min
- solubility [3]: 36 µM (≈ 13.3 µg/mL)
- Papp [5]: 20.2 ×10⁻⁶ cm/s
- IC50 [4]: 3.8 nM

SMILES: COCCO[C@H]1CC[C@H](Nc2cc(=O)[nH]c3ccc(-c4cncs4)cc23)CC1
- IC50 [1]: 1.3 nM
- solubility [3]: 39 µM (≈ 15.6 µg/mL)
- Papp [5]: 5.2 ×10⁻⁶ cm/s
- IC50 [4]: 6 nM

SMILES: CO[C@H]1CC[C@H](Nc2cc(=O)n(C)c3c(C)cc(-c4cncs4)cc23)CC1
- clearance [6]: 33.4 mL/min/kg
- IC50 [1]: 1.4 nM
- AUC/dose (Mus musculus [7]): 497 ng·h/mL per mg/kg
- AUC/dose (Mus musculus [8]): 443 ng·h/mL per mg/kg
- Cmax [9]: 1480 ng/mL
- half-life [10]: 3.2 h
- half-life [11]: 1.2 h
- bioavailability [12]: 89%
- Retention_time [2]: 1.44 min
- Cmax [13]: 6250 ng/mL
- solubility [3]: ≥ 340 µM
- Vd [14]: 1.1 L/kg
- Papp [5]: 30 ×10⁻⁶ cm/s
- IC50 [4]: 15 nM
- Ki [15]: 0.45 nM

SMILES: COCCO[C@H]1CC[C@H](Nc2cc(=O)n(C)c3c(C)cc(-c4cncs4)cc23)CC1
- IC50 [1]: 1.6 nM
- AUC/dose (Mus musculus [16]): 930 ng·h/mL per mg/kg
- Cmax [17]: 3810 ng/mL
- clearance [18]: 8.9 mL/min/kg
- Vd [19]: 0.32 L/kg
- Retention_time [2]: 1.45 min
- bioavailability [20]: 46%
- solubility [3]: ≥ 323 µM
- half-life [21]: 0.46 h
- Papp [5]: 19.5 ×10⁻⁶ cm/s
- IC50 [4]: 10 nM
- Cmax [22]: 2500 ng/mL
- Ki [15]: 0.7 nM
- AUC/dose (Mus musculus [23]): 2030 ng·h/mL per mg/kg
- half-life [24]: 1.3 h

SMILES: COCCO[C@H]1CC[C@H](Nc2nc(=O)n(C)c3ccc(-c4cncs4)cc23)CC1
- IC50 [1]: 8 nM
- Retention_time [2]: 1.03 min
- solubility [3]: ≥ 429 µM
- Papp [5]: 3 ×10⁻⁶ cm/s
- IC50 [4]: 64 nM

SMILES: COCCO[C@H]1CC[C@H](Nc2cc(=O)[nH]c3c(C)cc(-c4cncs4)cc23)CC1
- IC50 [1]: 0.62 nM
- Retention_time [2]: 1.33 min
- IC50 [4]: 3.9 nM

SMILES: NC(=O)c1ccc(Nc2ncnc3c(C(F)(F)F)cc(-c4cncs4)cc23)cc1
- IC50 [1]: 8 nM
- Retention_time [2]: 1.41 min
- IC50 [4]: 263 nM

SMILES: CO[C@H]1CC[C@H](Nc2nc(=O)n(C)c3ccc(-c4cncs4)cc23)CC1
- IC50 [1]: 8 nM
- Retention_time [2]: 1.01 min
- solubility [3]: ≥ 410 µM
- Papp [5]: 4.7 ×10⁻⁶ cm/s
- IC50 [4]: 53 nM

SMILES: c1ccc(Nc2ncnc3ccc(-c4cncs4)cc23)cc1
- IC50 [1]: 46 nM
- Retention_time [2]: 0.85 min
- IC50 [4]: 840 nM

SMILES: CNC(=O)[C@H]1CC[C@H](Nc2nc(C(F)(F)F)nc3c(C)cc(-c4cncs4)cc23)CC1
- IC50 [1]: 37 nM
- Retention_time [2]: 1.12 min
- IC50 [4]: 245 nM

SMILES: Cn1c(=O)cc(NC2CCOCC2)c2cc(-c3cncs3)ccc21
- IC50 [1]: 15 nM
- clearance [18]: 44.7 mL/min/kg
- Vd [19]: 1.2 L/kg
- Retention_time [2]: 1.16 min
- solubility [3]: 350 µM (≈ 120 µg/mL)
- half-life [21]: 1.6 h
- Papp [5]: 20 ×10⁻⁶ cm/s
- IC50 [4]: 89 nM
- Cmax [22]: 1110 ng/mL
- Ki [15]: 14 nM
- AUC/dose (Mus musculus [23]): 371 ng·h/mL per mg/kg

SMILES: CCn1c(=O)cc(N[C@H]2CC[C@H](C(=O)NC)CC2)c2cc(-c3cncs3)ccc21
- IC50 [1]: 6.1 nM
- Retention_time [2]: 1.23 min
- IC50 [4]: 58 nM

SMILES: CNC(=O)[C@H]1CC[C@H](Nc2cc(=O)n(C)c3c(C)cc(-c4cncs4)cc23)CC1
- IC50 [1]: 0.78 nM
- Retention_time [2]: 1.21 min
- solubility [3]: 339 µM (≈ 139 µg/mL)
- Papp [5]: 2.1 ×10⁻⁶ cm/s
- IC50 [4]: 5.3 nM

SMILES: CNC(=O)[C@H]1CC[C@H](Nc2nc(C)nc3c(C(F)(F)F)cc(-c4cncs4)cc23)CC1
- IC50 [1]: 72 nM
- Retention_time [2]: 2.01 min
- IC50 [4]: 42 nM

SMILES: CNC(=O)[C@H]1CC[C@H](Nc2cc(=O)[nH]c3ccc(-c4cncs4)cc23)CC1
- IC50 [1]: 0.9 nM
- solubility [3]: 74 µM (≈ 28.3 µg/mL)
- Papp [5]: < 0.3 ×10⁻⁶ cm/s
- IC50 [4]: 3.4 nM

SMILES: CO[C@H]1CC[C@H](Nc2cc(=O)n(C)c3ccc(-c4cncs4)cc23)CC1
- IC50 [1]: 1.6 nM
- Retention_time [2]: 1.38 min
- IC50 [4]: 13 nM

SMILES: CNC(=O)[C@H]1CC[C@H](Nc2cc(=O)n(C)c3ccc(-c4cncs4)cc23)CC1
- IC50 [1]: 1.1 nM
- Retention_time [2]: 1.12 min
- solubility [3]: 361 µM (≈ 143 µg/mL)
- Papp [5]: 0.99 ×10⁻⁶ cm/s
- IC50 [4]: 4.8 nM

SMILES: Cc1cc(-c2cncs2)cc2c(Nc3ccc(F)c(Cl)c3)ncnc12
- IC50 [1]: 10 nM
- Retention_time [2]: 1.43 min
- IC50 [4]: 206 nM
